The text below walks through data of the NIST ThermoML archive (doi:10.1016/j.fluid.2013.11.008).

Usually mass density stands for the mass of a sample divided by its volume.

The conditions of data set [1]: for mass density: 298.15 K, 101.33 kPa, Liquid, Pycnometric method.
Data set [2] can be described thus: Molar enthalpy of transition or fusion. The conditions noted are these: Crystal; DSC.

Numbers after ± are expanded uncertainties.

In the case of `C[C@]12CCC(=O)C=C1CC[C@@H]1[C@@H]2CC[C@]2(C)C(=O)CC[C@@H]12` [androst-4-ene-3,17-dione], the Normal melting temperature in data set [1] (Crystal, DTA) was found to be 171.39 ± 0.7 °C. The “Molar enthalpy of transition or fusion” value in data set [2] is 6.14 ± 0.382 kcal/mol.

Regarding `CCCCO` [butan-1-ol], the mass density in data set [1] is 805.5 ± 40 kg/m3. Still for that read-out and setting: the result for `CCO` [ethanol] reads 786.4 ± 40 kg/m3; that for `CO` [methanol], 785.9 ± 40 kg/m3; that for `CC(C)O` [propan-2-ol], 782.7 ± 40 kg/m3.
